# Values of other authors, collected in patent US9480645B2, “Omega-3 oil containing ophthalmic emulsions” (Abbott Medical Optics Inc., priority 2009, dated 2016).
# Settings: generally as reported by the manufacturer of the commercial product
row,HLB,Substance
1,4.3,Sorbitan monooleate
2,6.7,Sorbitan monopalmitate
3,4.7,Sorbitan monostearate
